Measurements published in patent US7951950B2, “PGD2 receptor antagonists for the treatment of inflammatory diseases” (Millennium Pharmaceuticals, Inc., priority 2005, dated 2011).
pKi: −log10 of the molar value.

Each compound was assayed against T1, cloned human CRTH2 receptor (Homo sapiens, UniProt Q9Y5Y4) (assay: radioligand membrane binding assay: inhibition of [3H] PGD2 binding, Scintillation Proximity Assay). Details: [3H] PGD2 binding to membranes of HEK-293 cells expressing human CRTH2; SPA.
T1 construct: purchased Biosignal; host or cells: HEK-293 cells stably expressing human CRTH2 and G alpha 16
T1 sequence (Q9Y5Y4 1-395): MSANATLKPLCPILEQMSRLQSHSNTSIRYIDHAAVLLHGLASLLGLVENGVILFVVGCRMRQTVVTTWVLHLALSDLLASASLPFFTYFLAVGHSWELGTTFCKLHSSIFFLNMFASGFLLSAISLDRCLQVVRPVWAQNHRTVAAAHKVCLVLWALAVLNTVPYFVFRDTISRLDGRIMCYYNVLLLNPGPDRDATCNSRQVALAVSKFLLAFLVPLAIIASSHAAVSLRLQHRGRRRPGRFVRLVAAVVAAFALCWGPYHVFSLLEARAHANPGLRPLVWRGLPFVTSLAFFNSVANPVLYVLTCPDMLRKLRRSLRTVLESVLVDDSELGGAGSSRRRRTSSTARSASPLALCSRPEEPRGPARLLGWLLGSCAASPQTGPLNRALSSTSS
Experimental: This radioligand membrane binding assay evaluates the ability of compounds to inhibit [^3H] Prostaglandin D2 (PGD2) binding to the cloned human CRTH2 receptor stably expressed in HEK-293 cells (expressing human CRTh2 receptor and α subunit or the heterotrimeric G protein 16 were prepared by Biosignal Company) using Scintillation Proximity Assay.
A binding buffer containing 50 mM Tris-HCl (pH 7.5), 5 mM MgCl2 and 1 mM EDTA is prepared immediately prior to performing the assay. A bead/membrane solution at twice the final assay concentration comprising membranes (membranes bought from Biosignal) from the HEK-293 cells cloned to express CRTH2 receptor bound to and [^3H] PGD2 at two times the final assay concentration are prepared and stored on ice before adding to wells. Cold PGD2 at twenty times the final assay concentration is prepared and stored on ice before adding to wells defining non-specific binding (NSB) coming plates #3653 are used for this assay.
10 mM stock concentrations of compounds in 100% DMSO are prepared and stored at room temperature. A 10 point concentration response curve is then constructed for each compound, starting at 10 μM (final assay concentration). The compounds are prepared at 40 times final assay concentrations with nine consequent-3-fold dilutions.
0.1 μl of each concentration of compound are added to the appropriate well of the 384 plate and 2 μl of cold PGD2 is added into the wells defining NSB. 20 μl of [3H] PGD2 and then 20 μl of 2× of bead/membrane solution are then added to each well.
The plates are allowed to incubate at room temperature for approximately 2 hours and then counted on Packard Topcount using SPA tritium protocol for 1 minute/well.
The percent inhibition of PGD2 binding (PGD2 used at the KD value or lower) to the HEK-293 cell membranes is determined, the assay is always run as duplicate for n=1 for a total of n=2 and shown below.

pKi | SMILES
> 5.00 | CCN(C(=O)[C@H]1C[C@H](C)N(C(=O)Cc2ccc(OC)cc2)c2ccccc21)c1ccc(Cl)cc1 (racemic) [Compound 2, (±)-trans-1-[2-(4-Methoxy-phenyl)-acetyl]-2-methyl-1,2,3,4-tetrahydro-quinoline-4-carboxylic acid (4-chloro-phenyl)-ethyl-amide]
> 5.00 | CCN(C(=O)[C@H]1C[C@@H](C)N(C(=O)c2ccc(OCCC(C)(C)C(=O)O)cc2)c2ccccc21)c1ccc(Cl)cc1 (racemic) [Compound 76, (±)-cis-4-(4-{4-[(4-Chloro-phenyl)-ethyl-carbamoyl]-2-methyl-3,4-dihydro-2H-quinoline-1-carbonyl}-phenoxy)-2,2-dimethyl-butyric acid]
> 5.00 | CCN(C(=O)[C@H]1C[C@H](C)N(C(=O)c2ccc(OC)cc2)c2ccccc21)c1ccc(Cl)c(C(F)(F)F)c1 (racemic) [Compound 11, (±)-trans-1-(4-Methoxy-benzoyl)-2-methyl-1,2,3,4-tetrahydro-quinoline-4-carboxylic acid (4-chloro-3-trifluoromethyl-phenyl)-ethyl-amide]
> 5.00 | CCN(C(=O)[C@H]1C[C@H](C)N(C(=O)c2ccc(OC)cc2)c2ccccc21)c1ccc(C)c(C(F)(F)F)c1 (racemic) [Compound 50, (±)-trans-1-(4-Methoxy-benzoyl)-2-methyl-1,2,3,4-tetrahydro-quinoline-4-carboxylic acid ethyl-(4-methyl-3-trifluoromethyl-phenyl)-amide]
> 5.00 | CCN(Cc1ccc(Cl)cc1)C(=O)[C@H]1C[C@H](C)N(C(=O)c2ccc(OC)cc2)c2ccccc21 (racemic) [Compound 5, (±)-trans-1-(4-Methoxy-benzoyl)-2-methyl-1,2,3,4-tetrahydro-quinoline-4-carboxylic acid (4-chloro-benzyl)-ethyl-amide]
> 5.00 | CCN(C(=O)[C@H]1C[C@H](C)N(C(=O)c2ccc(OC)cc2)c2ccccc21)c1ccc(C(C)C)cc1 (racemic) [Compound 15, (±)-trans-1-(4-Methoxy-benzoyl)-2-methyl-1,2,3,4-tetrahydro-quinoline-4-carboxylic acid ethyl-(4-isopropyl-phenyl)-amide]
> 5.00 | CCN(C(=O)C1CCN(C(=O)c2ccc(OC)cc2)c2ccccc21)c1ccc(Cl)cc1 (racemic) [Compound 33, (±)-1-(4-Methoxy-benzoyl)-1,2,3,4-tetrahydro-quinoline-4-carboxylic acid (4-chloro-phenyl)-ethyl-amide]
> 5.00 | CCN(C(=O)[C@H]1C[C@H](C)N(C(=O)c2ccc(OC)cc2)c2ccccc21)c1ccc(C)c(F)c1 (racemic) [Compound 57, (±)-trans-1-(4-Methoxy-benzoyl)-2-methyl-1,2,3,4-tetrahydro-quinoline-4-carboxylic acid ethyl-(3-fluoro-4-methyl-phenyl)-amide]
> 5.00 | CCN(C(=O)[C@H]1C[C@H](C)N(C(=O)c2ccc(OC)cc2)c2ccccc21)c1cc(C)on1 (racemic) [Compound 35, (±)-trans-1-(4-Methoxy-benzoyl)-2-methyl-1,2,3,4-tetrahydro-quinoline-4-carboxylic acid ethyl-(5-methyl-isoxazol-3-yl)-amide]
> 5.00 | CCN(C(=O)[C@H]1C[C@H](C)N(C(=O)c2ccc(OC)cc2)c2ccccc21)c1ccccc1C (racemic) [Compound 61, (±)-trans-1-(4-Methoxy-benzoyl)-2-methyl-1,2,3,4-tetrahydro-quinoline-4-carboxylic acid ethyl-o-tolyl-amide]
